# According to US12036226B2, “Methods of treating subjects having diabetes with chronic kidney disease” (Poxel SA, priority 2018, dated 2024):
# Like-named read-outs stand apart in the source and are kept apart here.
# Tested on: acute renal failure (ARF) rat model
# Details: for plasma glucose: normal rats
# Protocol: The creatinine level, correlated with the degree of the renal function failure, was tested for each rat 7 days after the first injection of gentamicin. […] The creatinine level was determined on the Monarch Chemistry Systems using the IL Test creatinine in rat plasma samples. This monochromatic analysis is based on the formation of a red colored complex between creatinine and picric acid under alkaline conditions.
structure (smiles),measurement,setting,value
"C[C@H]1N=C(N(C)C)N=C(N)N1 [imeglimin, (6R)—N^2, N^2,6-trimethyl-3,6-dihydro-1,3,5-triazine-2,4-diamine]",plasma glucose,"180 minutes, imeglimin and metformin 100 mg/h/kg, phenformin 50 mg/h/kg i.v.",5.4 ± 0.4 mmol/L
same,plasma glucose,"i.v. perfusion 100 mg/h/kg, 60 minutes (basal 7.6±0.4)",6.5 ± 0.4 mmol/L
same,effect on plasma [HCO3−],"rat, in vivo",significantly decreased plasma [HCO3^−]vs. basal period but not vs. control group
same,effect on plasma lactate,"rat, in vivo",did not significantly increase plasma lactate
same,effect on plasma lactate level,"rat, in vivo",did not change plasma lactate level
same,plasma H+ concentration / metabolic acidosis signs,"rat, in vivo",Metabolic acidosis signs with imeglimin treatment were not observed
same,plasma accumulation,"rat, in vivo",plasma accumulation of metformin and imeglimin was observed
same,severe hypoglycemia,"rat, in vivo",severe hypoglycemia was not observed
same,decrease in plasma glucose,rats with mild or high ARF,significant and time-dependent
